Results reported in patent US10550127B1, “Indanylaminoazadihydrobenzofuranylacetic acids, pharmaceutical compositions for the treatment of diabetes” (Boehringer Ingelheim International GmbH, priority 2017, dated 2020).
In brackets after ≈: the same amount, converted by molar mass.

Columns and labels:
[1] = target: cytochrome P450 2C8-isoenzyme (Homo sapiens (Human), UniProt P10632); experiment: Inhibition of CYP-2C8 (amodiaquine deethylation, human liver microsomes); type: in vitro ADME; settings: amodiaquine 1 μM, 37° C.
Chain of cytochrome P450 2C8-isoenzyme (P10632 whole entry): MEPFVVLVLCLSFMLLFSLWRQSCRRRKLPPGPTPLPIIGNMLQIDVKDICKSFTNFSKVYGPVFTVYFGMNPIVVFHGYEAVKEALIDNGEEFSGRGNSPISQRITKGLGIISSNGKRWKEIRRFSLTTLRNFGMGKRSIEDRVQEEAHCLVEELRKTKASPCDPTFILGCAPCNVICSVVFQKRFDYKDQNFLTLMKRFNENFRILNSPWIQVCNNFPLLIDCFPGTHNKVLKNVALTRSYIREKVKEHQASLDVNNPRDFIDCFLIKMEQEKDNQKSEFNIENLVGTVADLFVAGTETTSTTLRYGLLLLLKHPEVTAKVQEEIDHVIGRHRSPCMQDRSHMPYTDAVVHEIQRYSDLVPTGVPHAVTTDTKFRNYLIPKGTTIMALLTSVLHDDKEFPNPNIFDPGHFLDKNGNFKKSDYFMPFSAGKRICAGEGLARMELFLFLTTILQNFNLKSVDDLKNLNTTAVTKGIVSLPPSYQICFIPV
Protocol: (§1) All assays are carried out on a robotic system in 96 well plates. The final incubation volume contains TRIS buffer (0.1 M), MgCl2 (5 mM), human liver microsomes (0.05 mg/mL), amodiaquine (1 μM) and the test compound at five different concentrations or no compound (high control) in duplicate (e.g. highest concentration 10-50 μM with subsequent serial 1:4 dilutions). Following a short preincubation period, reactions are started with the cofactor (NADPH, 1 mM) and stopped by cooling the incubation down to 8° C. and subsequently by addition of one volume of acetonitrile. An internal standard solution—the stable isotope d5-desethylamodiaquine—is added after quenching of incubations. Peak area analyte (=metabolite formed) and internal standard is determined by LC-MS/MS. The resulting peak area ratio analyte to internal standard in these incubations is compared to a control activity containing no test compound. Within each of the assay runs, the IC50 of a positive control inhibitor (Montelukast) is determined. Experimental IC50 values are calculated by least square regression according to the following equation: % control activity=(100% control activity/(1+(I/IC50)S))−B with I=inhibitor concentration; S=slope factor; B=background activity (lower plateau of the inhibition curve)
If the inhibition of the reaction is already >50% at the lowest concentration of the test compound, the IC50 is assigned “<lowest concentration tested” (usually <0.4 μM). If the inhibition of the reaction is still <50% at the highest concentration of the test compound, the IC50 is assigned “> highest concentration tested” (usually >50 μM).

Aqueous solubility = type: physicochemical; settings: aqueous buffer, kinetic from dmso stock, buffer pH 2.2, 24 h shaking, 2.5% DMSO
Protocol: The aqueous solubility of the compounds of the invention is determined by comparing the amount dissolved in buffer to the amount in an acetonitrile/water (1/1) solution. Starting from a 10 mM DMSO stock solution aliquots are diluted with acetonitrile/water (1/1) or buffer, respectively. After 24 h of shaking, the solutions are filtrated and analyzed by LC-UV. The amount dissolved in buffer is compared to the amount in the acetonitrile solution.
Solubility is usually being measured from 0.001 to 0.125 mg/mL at a DMSO concentration of 2.5%. If more than 90% of the compound is dissolved in buffer, the value is marked with “>”.

[2] = target: cytochrome P450 2C9-isoenzyme (Homo sapiens (Human), UniProt P11712); experiment: Inhibition of CYP-2C9 (diclofenac hydroxylation, human liver microsomes); type: in vitro ADME; settings: diclofenac 10 μM, 37° C.
Chain of cytochrome P450 2C9-isoenzyme (P11712 whole entry): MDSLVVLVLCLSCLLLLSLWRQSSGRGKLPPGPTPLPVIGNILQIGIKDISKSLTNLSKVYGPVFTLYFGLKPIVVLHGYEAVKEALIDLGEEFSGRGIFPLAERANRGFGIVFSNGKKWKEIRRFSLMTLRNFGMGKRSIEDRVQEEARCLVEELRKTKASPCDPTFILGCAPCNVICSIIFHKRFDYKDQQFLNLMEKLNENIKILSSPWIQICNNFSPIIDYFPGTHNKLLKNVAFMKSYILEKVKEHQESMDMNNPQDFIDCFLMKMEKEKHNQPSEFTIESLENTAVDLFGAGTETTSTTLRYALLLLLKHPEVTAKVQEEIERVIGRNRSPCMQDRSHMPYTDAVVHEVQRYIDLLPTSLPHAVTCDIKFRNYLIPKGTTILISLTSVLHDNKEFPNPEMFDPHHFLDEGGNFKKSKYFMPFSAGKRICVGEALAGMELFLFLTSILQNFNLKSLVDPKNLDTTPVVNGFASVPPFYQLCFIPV
Protocol: as §1, with “(0.1” for “(0.05”, “diclofenac (10” for “amodiaquine (1”, “(e.g.,” for “(e.g.”, “^13C6-hydroxydiclofenac—is” for “d5-desethylamodiaquine—is”, “(sulfaphenazole)” for “(Montelukast)”, “curve) […]” for “curve)”

human GPR40 receptor = human GPR40 receptor (Homo sapiens (Human), UniProt O14842); experiment: IP1 accumulation measurements using the IPOne assay system; type: cell-based; settings: 1321N1 cells stably expressing human GPR40, 1 h stimulation
Chain of human GPR40 receptor (O14842 whole entry): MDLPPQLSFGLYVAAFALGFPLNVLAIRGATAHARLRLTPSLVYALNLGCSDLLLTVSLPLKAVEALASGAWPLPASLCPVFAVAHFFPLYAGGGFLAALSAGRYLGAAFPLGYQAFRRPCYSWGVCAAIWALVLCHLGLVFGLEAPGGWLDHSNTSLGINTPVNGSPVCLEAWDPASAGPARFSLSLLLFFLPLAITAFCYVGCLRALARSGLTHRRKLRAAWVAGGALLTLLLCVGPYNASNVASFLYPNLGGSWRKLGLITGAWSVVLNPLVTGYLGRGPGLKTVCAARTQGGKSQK
Protocol: IP1 accumulation measurements using the IPOne assay system—1321N1 cells stably expressing human GPR40 receptor (Euroscreen, Belgium) are seeded 24 h before the assay in white 384-well plates in culture medium containing 10% FCS, 1% Na-Pyruvate and 400 μg/mL G418. IP1 is assayed according to the manufacturer's description (Cisbio Bioassays, France). In brief, the assay is started by substitution of the culture medium by stimulation buffer (Hepes 10 mM, CaCl2) 1 mM, MgCl2 0.5 mM, KCl 4.2 mM, NaCl 146 mM, glucose 5.5 mM and LiCl 50 mM, pH 7.4). Cells are stimulated for 1 h at 37° C., 5% CO2 by addition of the compounds that are diluted in stimulation buffer containing LiCl. Assays are stopped by adding HTRF-conjugates (IP1-d2 and Anti-IP1 cryptate Tb) and lysis buffer, provided by the manufacturer. After an incubation time of 1 h at room temperature plates are measured using an EnVision™, Perkin Elmer. The obtained fluorescence ratios at 665/615 […] are then used to calculate the pEC50 values using Assay Explorer 3.3 Software (Accelrys, Inc.) by interpolation using an IP1 reference curve and subsequent sigmoidal curve fitting allowing for a variable hill slope.

SMILES | IC50 [1] [µM] | solubility at 24 h (Aqueous solubility) [mg/mL] | IC50 [2] [µM] | EC50 (human GPR40 receptor) [µM]
Cc1cc(OCCC(C)(C)O)cc(C)c1-c1ccc(F)c2c1CC[C@H]2Nc1cc2c(cn1)[C@H](CC(=O)O)CO2 [Example 1, ((S)-6-{(R)-7-Fluoro-4-[4-(3-hydroxy-3-methyl-butoxy)-2,6-dimethyl-phenyl]-indan-1-ylamino}-2,3-dihydro-furo[3,2-c]pyridin-3-yl)-acetic Acid] | 30 | > 0.094 | > 50 | 0.015
Cc1cc(-c2nnn(C)n2)cc(C)c1-c1ccc(F)c2c1CC[C@H]2Nc1cc2c(cn1)[C@H](CC(=O)O)CO2 [Example 5, ((S)-6-{(R)-4-[2,6-Dimethyl-4-(2-methyl-2H-tetrazol-5-yl)-phenyl]-7-fluoro-indan-1-ylamino}-2,3-dihydro-furo[3,2-c]pyridin-3-yl)-acetic Acid] | 35 | 0.047 (≈ 91.3 µM) | > 50 | 0.006
Cc1cc(OCCC(C)(C)O)cc(C)c1-c1ccc(F)c2c1CC[C@H]2Oc1ccc2c(c1)OC[C@H]2CC(=O)O [Example 16 in WO 2013/144098, reference compound] | 5 | < 0.001 | – | –
Cc1cc(-c2nnn(C)n2)cc(C)c1-c1ccc(F)c2c1CC[C@H]2Oc1ccc2c(c1)OC[C@H]2CC(=O)O [Example 138 in WO 2013/144098, reference compound] | – | < 0.001 | – | –
